The values below come from paper PMC8011784, “Chronic peptide-based GIP receptor inhibition exhibits modest glucose metabolic changes in mice when administered either alone or combined with GLP-1 agonism” (PLoS ONE, 2021).

pIC50: −log10 of the molar value. Starred links: 1 amine or outer side, 2 acyl side, 3 side chain; linkers in the order of their positions; H or OH if unused. Residues, ends and D or L forms follow the SMILES beside them. Groups on a side chain read outwards from the residue. No end group written: not given here. *: point of attachment. γGlu = O=C(O)[C@H](CCC(=O)[*:2])N[*:1]; Palmitoyl = CCCCCCCCCCCCCCCC(=O)*

One series relates to GIPR. The following applies: cited from earlier work. The source says: Further controversy is evident with peptide based GIPR antagonists. […] In contrast, a palmitoyl variant of Pro^3GIP(3–30) ... || The GLP-1-agonist-GIPR-antagonist combination therapy reported in the present study was born from evidence of compromised gut-hormone function in obesity and diabetes as well as their postulated role in driving the beneficial metabolic effects following bariatric surgery. Indeed, GLP-1 secretion is enhanced after bariatric surgery which is thought to be a key component for the resolution of diabetes. In contrast, the controversial role of the GIP signalling pathway in dysmetabolic states has led to the pursuit of both agonist and antagonist approaches. There is a compelling ...

A further series has as its target T1, mouse GIP receptor (Mus musculus, UniProt Q0P543).
T1 construct: host or cells: CHO-K1 (cAMP Hunter CHO-K1 GIPR Gs cell line)
T1 sequence (Q0P543 19-460): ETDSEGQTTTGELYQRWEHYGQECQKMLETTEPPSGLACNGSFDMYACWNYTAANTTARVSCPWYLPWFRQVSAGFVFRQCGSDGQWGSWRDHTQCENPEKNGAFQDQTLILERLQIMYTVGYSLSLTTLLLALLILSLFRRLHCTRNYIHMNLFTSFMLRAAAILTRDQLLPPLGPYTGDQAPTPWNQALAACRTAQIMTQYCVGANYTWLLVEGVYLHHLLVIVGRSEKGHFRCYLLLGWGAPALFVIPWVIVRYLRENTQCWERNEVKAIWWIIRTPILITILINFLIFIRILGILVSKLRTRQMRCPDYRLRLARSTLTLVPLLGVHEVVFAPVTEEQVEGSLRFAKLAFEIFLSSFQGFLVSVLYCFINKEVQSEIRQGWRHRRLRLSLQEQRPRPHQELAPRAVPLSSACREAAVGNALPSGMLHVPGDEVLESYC
As to the kind of experiment: Antagonist mode cAMP assay: inhibition of mouse GIP-induced cAMP production in CHO-K1 GIPR Gs cells. Type of series: cell-based. The following applies: curve fit value in plot, unit from legend, read-out: IC50 (printed on plot, Fig 1A/1B). The protocol: Each peptide was tested for its ability to activate or inhibit the mouse GIP receptor using the cAMP Hunter™ CHO-K1 GIPR Gs cell line, in combination with the Hit Hunter® cAMP XP+ assay for determining cAMP, according to the manufacturer’s instructions (Eurofins DiscoverX Corporation).
Fig 1 Effects of acute GIPR antagonism on glucose homeostasis and insulin secretion. GIPA-1 and GIPA-2 are antagonists of mouse GIPR. […] IC50 values (μM) are indicated on the plots. (C-J) Acute effects of GIPA-1 and GIPA-2 on glucose homeostasis and insulin secretion in lean mice. Oral glucose tolerance tests (C and E), the corresponding areas under the curve (AUC) (D and F) and insulin responses (I) following subcutaneous injections of vehicle, 1,5 and 10 mg/kg GIPA-1 (C and D) or vehicle, 1,5 and 10 mg/kg GIPA-2 (E and F) before an oral glucose administration (1.5 g/kg). […] Statistical analysis was calculated using two-way ANOVA with Tukey’s post-hoc test (C, E, G and J) and one-way ANOVA with Dunnett’s post-hoc test (D, F, H, I). *: p< 0.05, **: p < 0.01, ***: p < 0.001, ****: p<0.0001 compared to vehicle.
We began by characterising the receptor-interaction properties of GIPA-1 and GIPA-2. Their agonist and antagonist potencies were measured via a cAMP production assay in CHO-K1 cells overexpressing the mouse GIPR.
(Cyclic AMP is a second messenger, typically raised through Gs and lowered through Gi signalling.)

The conditions of series [1]: cited from earlier work. The source says:
Given the strong in vitro pharmacological data and our interest in other metabolic parameters such as adiposity and insulin se ...

For series [2], the system named is lean male C57BL/6JRj mice. As to the kind of experiment: Acute intraperitoneal glucose tolerance test (IPGTT) with GIPA-2 and mouse GIP in lean mice. In kind it is in vivo. The following applies: n = 8; for plasma insulin: 0.1 mg/kg mouse GIP SC. On the procedure: The effects of GIPA-2 and mouse GIP alone or in combination were studied in 10-week old lean male C57BL/6JRj mice. Animals were fasted 4 hours prior to an intraperitoneal glucose bolus (1.5 g/kg). Sixty minutes prior to glucose load animals received subcutaneous injection of 5mg/kg GIPA-2, while animals receiving mouse GIP (0.1 mg/kg) were dosed subcutaneously 15 minutes prior to glucose load. Blood glucose was measured just before the administration of GIPA-2 and at 0, 15, 30 60, 120, 180 and 240 min. Plasma insulin was measured at 0, 15 and 240 min.
Fig 1 Effects of acute GIPR antagonism on glucose homeostasis and insulin secretion. GIPA-1 and GIPA-2 are antagonists of mouse GIPR. […] IC50 values (μM) are indicated on the plots. (C-J) Acute effects of GIPA-1 and GIPA-2 on glucose homeostasis and insulin secretion in lean mice. Oral glucose tolerance tests (C and E), the corresponding areas under the curve (AUC) (D and F) and insulin responses (I) following subcutaneous injections of vehicle, 1,5 and 10 mg/kg GIPA-1 (C and D) or vehicle, 1,5 and 10 mg/kg GIPA-2 (E and F) before an oral glucose administration (1.5 g/kg). (G, H and J) Acute effect of GIPA-2 alone or in combination with mouse GIP on glucose homeostasis and insulin secretion in lean mice. Intraperitoneal glucose tolerance test cute IPGTT (G), the corresponding AUC (H) and insulin response (J) following subcutaneous injections of vehicle, 0.1 mg/kg mouse GIP, 5mg/kg GIPA-2, and combination of both. Group sizes are n = 8, and data are represented as mean ± SEM. Statistical analysis was calculated using two-way ANOVA with Tukey’s post-hoc test (C, E, G and J) and one-way ANOVA with Dunnett’s post-hoc test (D, F, H, I). *: p< 0.05, **: p < 0.01, ***: p < 0.001, ****: p<0.0001 compared to vehicle.

The subject of the next series is GIP receptor. The conditions noted are these: humans, co-infusion with GIP(3-30)NH2; cited from earlier work. The source says:
It has been shown that rat and the human GIP(3-30)NH2 are effective antagonists in vivo [48, 49], so we would expect the mouse GIP(3-30)NH2 to behave in a similar manner. […] In humans GIP-induced insulin secretion was reduced by 82% during co-infusion with GIP(3-30)NH2 [48].

In the next series the test system is rats. The conditions noted are these: 25 nmol/kg b.w. for 3 weeks, cited from earlier work. The source says: Further controversy is evident with peptide based GIPR antagonists. […] In contrast, a palmitoyl variant of Pro^3GIP(3–30) ... || It has been shown that rat and the human GIP(3-30)NH2 are effective antagonists in vivo [48, 49], so we would expect the mouse GIP(3-30)NH2 to behave in a similar manner. […] In humans GIP-induced insulin secretion was reduced by 82% during co-infusion with GIP(3-30)NH2 [48].

Take “(Pro3)-GIP: GIPR antagonist subsequently found to also possess partial agonist properties (YAPGTFISDYSIAMDKIHQQDFVNWLLAQKGKKNDWKHNITQ; Gastric inhibitory polypeptide; UniProt P09681 52-93, looked up, variant E3P)”: in the series on GIPR, the GIPR agonist/antagonist character entry is “originally characterized as an antagonist but was subsequently found to also possess partial agonist properties”.

On to `CCCCCCCCCCCCCCCC(=O)N[C@@H](CCC(=O)N[C@@H](CCC(=O)NCCCC[C@H](NC(=O)[C@H](CC(=O)O)NC(=O)[C@H](CO)NC(=O)[C@@H](NC(=O)[C@H](Cc1ccccc1)NC(=O)[C@@H](NC(C)=O)[C@@H](C)O)[C@@H](C)CC)C(=O)N[C@@H](CO)C(=O)N[C@H](C(=O)N[C@@H](C)C(=O)N[C@@H](CCSC)C(=O)N[C@@H](CC(=O)O)C(=O)N[C@@H](CCCCN)C(=O)N[C@H](C(=O)N[C@@H](CCCNC(=N)N)C(=O)N[C@@H](CCC(N)=O)C(=O)N[C@@H](CCC(N)=O)C(=O)N[C@@H](CC(=O)O)C(=O)N[C@@H](Cc1ccccc1)C(=O)N[C@H](C(=O)N[C@@H](CC(N)=O)C(=O)N[C@@H](Cc1c[nH]c2ccccc12)C(=O)N[C@@H](CC(C)C)C(=O)N[C@@H](CC(C)C)C(=O)N[C@@H](C)C(=O)N[C@@H](CCC(N)=O)C(=O)N[C@@H](CCCCN)C(=O)NCC(=O)N[C@@H](CCCCN)C(=O)N[C@@H](CCCCN)C(=O)N[C@@H](CC(N)=O)C(=O)N[C@@H](CC(=O)O)C(=O)N[C@@H](Cc1c[nH]c2ccccc12)C(=O)N[C@@H](CCCCN)C(=O)N[C@@H](Cc1c[nH]cn1)C(=O)N[C@@H](CC(N)=O)C(=O)N[C@H](C(=O)N[C@H](C(=O)N[C@@H](CCC(N)=O)C(=O)O)[C@@H](C)O)[C@@H](C)CC)C(C)C)[C@@H](C)CC)[C@@H](C)CC)C(=O)O)C(=O)O` [GIPA-2, N^αAc-K10[γEγE-C16]-Arg18-hGIP(5–42)] (Ac-TFISDK([γGlu-γGlu-Palmitoyl])SIAMDKIRQQDFVNWLLAQKGKKNDWKHNITQ-OH), for which the pIC50 at mouse GIP receptor is 8.53. The “plasma half-life and in vivo duration of action” value in series [1] was “extended plasma half-life”.

“mouse GIP: Mouse GIP was sourced from Phoenix Pharmaceuticals (YAEGTFISDYSIAMDKIRQQDFVNWLLAQRGKKSDWKHNITQ; Gastric inhibitory polypeptide; UniProt P48756 44-85, looked up)”: in series [2] (5 mg/kg GIPA-2 SC 60 min and/or 0.1 mg/kg mouse GIP SC 15 min before ip glucose 1.5 g/kg), the “glucose tolerance (IPGTT)” value is “significantly improved glucose tolerance”. The plasma insulin result in series [2] (15 and 240 min timepoints) was “This effect was not observed”; in series [2] (15 minutes after mouse GIP, just prior to glucose bolus (0 min), 5 mg/kg GIPA-2 SC) it was “robust increase in plasma insulin”.

On to “human GIP(3-30)NH2: the human peptide sequence of GIP(3-30)NH2 (EGTFISDYSIAMDKIHQQDFVNWLLAQK-NH2; UniProt P09681 54-81, looked up, fragment)”, for which, in the series on GIP receptor, the “reduction of GIP-induced insulin secretion” value was 82%. Moreover, the plasma elimination half-life in series [1] (human peptide sequence, in humans) is 7.7 ± 1.4 min.

In the case of `CC[C@H](C)[C@H](NC(=O)[C@H](CO)NC(=O)[C@H](Cc1ccc(O)cc1)NC(=O)[C@H](CC(=O)O)NC(=O)[C@H](CO)NC(=O)[C@@H](NC(=O)[C@H](Cc1ccccc1)NC(=O)[C@@H](NC(=O)CNC(=O)[C@@H](N)CCC(=O)O)[C@@H](C)O)[C@@H](C)CC)C(=O)N[C@@H](C)C(=O)N[C@@H](CCSC)C(=O)N[C@@H](CC(=O)O)C(=O)N[C@@H](CCCCN)C(=O)N[C@H](C(=O)N[C@@H](CCCNC(=N)N)C(=O)N[C@@H](CCC(N)=O)C(=O)N[C@@H](CCC(N)=O)C(=O)N[C@@H](CC(=O)O)C(=O)N[C@@H](Cc1ccccc1)C(=O)N[C@H](C(=O)N[C@@H](CC(N)=O)C(=O)N[C@@H](Cc1c[nH]c2ccccc12)C(=O)N[C@@H](CC(C)C)C(=O)N[C@@H](CC(C)C)C(=O)N[C@@H](C)C(=O)N[C@@H](CCC(N)=O)C(=O)N[C@@H](CCCNC(=N)N)C(N)=O)C(C)C)[C@@H](C)CC` [GIPA-1, mouse GIP(3–30)NH2], the pIC50 on mouse GIP receptor was 6.32.

Turning to “GIP(3–30)NH2: N-terminally truncated form of GIP, potent peptide-based antagonist; species not stated (EGTFISDYSIAMDKIHQQDFVNWLLAQK-NH2; UniProt P09681 54-81, looked up, fragment)”, the GIPR antagonist potency result in the series on GIPR was “potent peptide-based antagonist”.

Turning to “rat GIP(3–30)NH2: GIPR antagonist, rat GIP(3–30)NH2”, the “body weight, fat mass, triglycerides, LPL, leptin” value in the series on rats (sub-chronic dosing, rats fed normal chow) was “significantly increased body weight, body fat mass, triglycerides, LPL, and leptin levels”. Also, in the series on rats (subchronic treatment), the “food intake or bone resorption” value was “did not modify food intake or bone resorption”.
